According to paper PMC5218480 (PLoS ONE, 2017):

Tested on: MV-4-11 cells
Experiment: Gene expression microarray analysis (Affymetrix PrimeView) and GSEA
Format: cell-based, human
Design: RFU PODN (11730768_x_at) / Fold change /veh PODN (11730768_x_at) / RFU LINC00158 (11744669_a_at) / Fold change /veh LINC00158 (11744669_a_at) / RFU DUSP10 (11751237_a_at) / Fold change /veh DUSP10 (11751237_a_at) / RFU ID3 (11757404_x_at) / Fold change /veh ID3 (11757404_x_at) / RFU PLEKHG5 (11737974_s_at) / Fold change /veh PLEKHG5 (11737974_s_at) / RFU LRRC4B (11730491_at) / Fold change /veh LRRC4B (11730491_at) / RFU GIMAP4 (11747438_a_at) / Fold change /veh GIMAP4 (11747438_a_at) / RFU KRT8 (11758183_x_at) / Fold change /veh KRT8 (11758183_x_at) / RFU CNN1 (11734310_a_at) / Fold change /veh CNN1 (11734310_a_at) / RFU VPS37D (11726825_at) / Fold change /veh VPS37D (11726825_at) / RFU C10orf10 (11716522_x_at) / Fold change /veh C10orf10 (11716522_x_at) / RFU KIR2DL2 /// KIR2DL4 /// KIR2DL5A /// KIR2DL5B /// KIR2DS1 /// KIR2DS2 /// KIR2DS3 /// KIR2DS4 /// KIR3DL3 /// KIR3DL3 /// KIR3DS1 (11738374_at) / Fold change /veh KIR2DL2 /// KIR2DL4 /// KIR2DL5A /// KIR2DL5B /// KIR2DS1 /// KIR2DS2 /// KIR2DS3 /// KIR2DS4 /// KIR3DL3 /// KIR3DL3 /// KIR3DS1 (11738374_at) / RFU C1QL1 (11718748_at) / Fold change /veh C1QL1 (11718748_at) / RFU TMPRSS4 (11747572_a_at) / Fold change /veh TMPRSS4 (11747572_a_at) / RFU HAMP (11756126_x_at) / Fold change /veh HAMP (11756126_x_at) / RFU RNFT2 (11725882_a_at) / Fold change /veh RNFT2 (11725882_a_at) / RFU NR4A2 (11747474_a_at) / Fold change /veh NR4A2 (11747474_a_at) / RFU ABCC12 (11746883_a_at) / Fold change /veh ABCC12 (11746883_a_at) / RFU TMEM136 (11760407_x_at) / Fold change /veh TMEM136 (11760407_x_at) / RFU CLDN22 /// WWC2 (11732394_at) / Fold change /veh CLDN22 /// WWC2 (11732394_at) / RFU HLA-DPB1 (11760878_x_at) / Fold change /veh HLA-DPB1 (11760878_x_at) / RFU SPINT1 (11716480_a_at) / Fold change /veh SPINT1 (11716480_a_at) / RFU GAP43 (11754022_s_at) / Fold change /veh GAP43 (11754022_s_at) / RFU A4GNT (11735810_at) / Fold change /veh A4GNT (11735810_at) / RFU PRB3 (11715151_x_at) / Fold change /veh PRB3 (11715151_x_at) / RFU TUBB4B (11761932_at) / Fold change /veh TUBB4B (11761932_at) / RFU CAPN14 (11732068_a_at) / Fold change /veh CAPN14 (11732068_a_at) / RFU TMCC2 (11721928_a_at) / Fold change /veh TMCC2 (11721928_a_at) / RFU IRGQ (11745062_a_at) / Fold change /veh IRGQ (11745062_a_at) / RFU FAM174B (11720279_a_at) / Fold change /veh FAM174B (11720279_a_at) / RFU TMPRSS4 (11748680_a_at) / Fold change /veh TMPRSS4 (11748680_a_at) / RFU FAM212B (11763350_a_at) / Fold change /veh FAM212B (11763350_a_at) / RFU PLEKHG5 (11743358_a_at) / Fold change /veh PLEKHG5 (11743358_a_at) / RFU ZSCAN30 (11745921_a_at) / Fold change /veh ZSCAN30 (11745921_a_at) / RFU CMKLR1 (11741424_a_at) / Fold change /veh CMKLR1 (11741424_a_at) / RFU LOC101060620 /// MAPK8IP1 (11723275_at) / Fold change /veh LOC101060620 /// MAPK8IP1 (11723275_at) / RFU SPTSSB (11747773_x_at) / Fold change /veh SPTSSB (11747773_x_at) / RFU PRSS12 (11739890_at) / Fold change /veh PRSS12 (11739890_at) / RFU BIN1 (11741810_x_at) / Fold change /veh BIN1 (11741810_x_at) / RFU WNT11 (11732464_a_at) / Fold change /veh WNT11 (11732464_a_at) / RFU C10orf10 (11716521_a_at) / Fold change /veh C10orf10 (11716521_a_at) / RFU C5orf56 (11738089_at) / Fold change /veh C5orf56 (11738089_at) / RFU CYB561 (11721691_x_at) / Fold change /veh CYB561 (11721691_x_at) / RFU ANKRD19P (11752326_a_at) / Fold change /veh ANKRD19P (11752326_a_at) / RFU OR2T12 /// OR2T33 /// OR2T8 (11738714_s_at) / Fold change /veh OR2T12 /// OR2T33 /// OR2T8 (11738714_s_at) / RFU VCAN (11748164_a_at) / Fold change /veh VCAN (11748164_a_at) / RFU JSRP1 (11732532_at) / Fold change /veh JSRP1 (11732532_at) / RFU KRTAP10-11 (11738290_x_at) / Fold change /veh KRTAP10-11 (11738290_x_at) / RFU MYO3A (11730013_a_at) / Fold change /veh MYO3A (11730013_a_at) / RFU EBF3 (11725865_a_at) / Fold change /veh EBF3 (11725865_a_at) / RFU CAMK2N1 (11719241_x_at) / Fold change /veh CAMK2N1 (11719241_x_at) / RFU C5orf56 (11738088_a_at) / Fold change /veh C5orf56 (11738088_a_at) / RFU OLFML3 (11715873_a_at) / Fold change /veh OLFML3 (11715873_a_at) / RFU LOC100653217 /// NTM (11731650_a_at) / Fold change /veh LOC100653217 /// NTM (11731650_a_at) / RFU MAPK11 (11762145_a_at) / Fold change /veh MAPK11 (11762145_a_at) / RFU FIZ1 (11724087_x_at) / Fold change /veh FIZ1 (11724087_x_at) / RFU OASL (11726364_x_at) / Fold change /veh OASL (11726364_x_at) / RFU SOX15 (11748057_x_at) / Fold change /veh SOX15 (11748057_x_at) / RFU CD79A (11719716_a_at) / Fold change /veh CD79A (11719716_a_at) / RFU HIST1H1D (11736915_at) / Fold change /veh HIST1H1D (11736915_at) / RFU CASKIN2 (11723855_a_at) / Fold change /veh CASKIN2 (11723855_a_at) / RFU LOC730098 (11760151_x_at) / Fold change /veh LOC730098 (11760151_x_at) / RFU OR4N2 (11742367_at) / Fold change /veh OR4N2 (11742367_at) / RFU PRRT2 (11749266_a_at) / Fold change /veh PRRT2 (11749266_a_at) / RFU SNX32 (11753110_a_at) / Fold change /veh SNX32 (11753110_a_at) / RFU CDHR5 (11726645_a_at) / Fold change /veh CDHR5 (11726645_a_at) / RFU RCAN1 (11760418_a_at) / Fold change /veh RCAN1 (11760418_a_at) / RFU FAM167A (11723789_a_at) / Fold change /veh FAM167A (11723789_a_at) / RFU FAM26E (11764081_at) / Fold change /veh FAM26E (11764081_at) / RFU ISYNA1 (11749810_s_at) / Fold change /veh ISYNA1 (11749810_s_at) / RFU ACY1 (11761880_at) / Fold change /veh ACY1 (11761880_at) / RFU 11764098_at / Fold change /veh 11764098_at / RFU SAMD14 (11745864_x_at) / Fold change /veh SAMD14 (11745864_x_at) / RFU NPB (11741838_a_at) / Fold change /veh NPB (11741838_a_at) / RFU TMPRSS6 (11731388_a_at) / Fold change /veh TMPRSS6 (11731388_a_at) / RFU KRTAP10-2 (11738614_at) / Fold change /veh KRTAP10-2 (11738614_at) / RFU ARHGAP8 /// PRR5-ARHGAP8 (11727945_x_at) / Fold change /veh ARHGAP8 /// PRR5-ARHGAP8 (11727945_x_at) / RFU KRTAP5-7 /// NADSYN1 (11734609_at) / Fold change /veh KRTAP5-7 /// NADSYN1 (11734609_at) / RFU RASL12 (11751679_a_at) / Fold change /veh RASL12 (11751679_a_at) / RFU CDKN2B (11736163_a_at) / Fold change /veh CDKN2B (11736163_a_at) / RFU PRF1 (11729649_at) / Fold change /veh PRF1 (11729649_at) / RFU, ZNF638 /// ZNF638-IT1 / Fold change vs veh, ZNF638 /// ZNF638-IT1 / RFU, PANK3 / Fold change vs veh, PANK3 / RFU, SH3YL1 / Fold change vs veh, SH3YL1 / RFU, ZEB2 / Fold change vs veh, ZEB2 / RFU, NRIP1 / Fold change vs veh, NRIP1 / RFU, PTTG1IP / Fold change vs veh, PTTG1IP / RFU, CAPN2 / Fold change vs veh, CAPN2 / RFU, MED14 / Fold change vs veh, MED14 / RFU, SNORA58 / Fold change vs veh, SNORA58 / RFU, C1orf63 / Fold change vs veh, C1orf63 / RFU, LRRFIP1 / Fold change vs veh, LRRFIP1 / RFU, NDUFAF7 / Fold change vs veh, NDUFAF7 / RFU, SLC12A2 / Fold change vs veh, SLC12A2 / RFU, IBTK / Fold change vs veh, IBTK / RFU, ESF1 / Fold change vs veh, ESF1 / Fold change vs veh, TMEM50B / RFU, TAOK1 / Fold change vs veh, TAOK1 / RFU, ACBD3 / Fold change vs veh, ACBD3 / RFU, TMA16 / Fold change vs veh, TMA16 / RFU, RWDD3 / Fold change vs veh, RWDD3 / RFU, BCAT1 / Fold change vs veh, BCAT1 / RFU, EDEM3 / Fold change vs veh, EDEM3 / RFU, TMEM33 / Fold change vs veh, TMEM33 / RFU, WDR75 / Fold change vs veh, WDR75 / RFU, AHCTF1 / Fold change vs veh, AHCTF1 / RFU, TFRC / Fold change vs veh, TFRC / RFU, ZDHHC17 / Fold change vs veh, ZDHHC17 / RFU, NOM1 / Fold change vs veh, NOM1 / RFU, ARL8B / Fold change vs veh, ARL8B / RFU, ZBTB11 / Fold change vs veh, ZBTB11 / RFU, TAMM41 / Fold change vs veh, TAMM41 / RFU, KIAA1704 /// LOC100996395 / Fold change vs veh, KIAA1704 /// LOC100996395 / RFU, ING1 / Fold change vs veh, ING1 / RFU, TRMT61B / Fold change vs veh, TRMT61B / RFU, FUBP3 / Fold change vs veh, FUBP3 / RFU, TP53 / Fold change vs veh, TP53 / RFU, TNKS2 / Fold change vs veh, TNKS2 / RFU, ZFP14 / Fold change vs veh, ZFP14 / RFU, ACTR2 / Fold change vs veh, ACTR2 / RFU, PPP3R1 / Fold change vs veh, PPP3R1 / RFU, PIK3R1 / Fold change vs veh, PIK3R1 / RFU, HNRNPA1 / Fold change vs veh, HNRNPA1 / RFU, RNF170 / Fold change vs veh, RNF170 / RFU, ZNF28 / Fold change vs veh, ZNF28 / RFU, RNGTT / Fold change vs veh, RNGTT / RFU, OGT / Fold change vs veh, OGT / RFU, BRD1 / Fold change vs veh, BRD1 / RFU, MARS / Fold change vs veh, MARS / RFU, ZNF655 / Fold change vs veh, ZNF655 / RFU, FAHD1 / Fold change vs veh, FAHD1 / RFU, BDP1 / Fold change vs veh, BDP1 / RFU, LRRCC1 / Fold change vs veh, LRRCC1 / RFU, ARID1A / Fold change vs veh, ARID1A / RFU, ZNF146 / Fold change vs veh, ZNF146 / RFU, ZNF330 / Fold change vs veh, ZNF330 / RFU, GPN3 / Fold change vs veh, GPN3 / RFU, C9orf123 / Fold change vs veh, C9orf123 / RFU, N4BP2L2 / Fold change vs veh, N4BP2L2 / RFU, ARFIP1 / Fold change vs veh, ARFIP1 / RFU, FAM179B / Fold change vs veh, FAM179B / RFU, BCL10 / Fold change vs veh, BCL10 / RFU, UHRF1BP1L / Fold change vs veh, UHRF1BP1L / RFU, BET1 / Fold change vs veh, BET1 / RFU, CNOT2 / Fold change vs veh, CNOT2 / RFU, ZNF268 / Fold change vs veh, ZNF268 / Fold change vs veh, ZNF507 / RFU, DGCR2 / Fold change vs veh, DGCR2 / RFU, WDSUB1 / Fold change vs veh, WDSUB1 / Fold change vs veh, HSP90B1 /// MIR3652 / RFU, ADSS / Fold change vs veh, ADSS / RFU, GK / Fold change vs veh, GK / RFU, ZNF148 / Fold change vs veh, ZNF148 / RFU, TAF9 / Fold change vs veh, TAF9 / RFU, SLC1A5 / Fold change vs veh, SLC1A5 / RFU, SLMO2 / Fold change vs veh, SLMO2 / RFU, ABCC4 / Fold change vs veh, ABCC4 / RFU, LOC101060439 /// RAP1B / Fold change vs veh, LOC101060439 /// RAP1B / RFU, RFX7 / Fold change vs veh, RFX7 / RFU, GTPBP10 / Fold change vs veh, GTPBP10 / RFU, CNEP1R1 / Fold change vs veh, CNEP1R1 / RFU, BIVM-ERCC5 /// ERCC5 / Fold change vs veh, BIVM-ERCC5 /// ERCC5 / RFU, ILF3 / Fold change vs veh, ILF3 / RFU 11762660_at / Fold change /veh 11762660_at / RFU VCAN (11757783_s_at) / Fold change /veh VCAN (11757783_s_at) / RFU DDX43 (11728927_at) / Fold change /veh DDX43 (11728927_at) / RFU KRT8 (11758188_x_at) / Fold change /veh KRT8 (11758188_x_at) / RFU NKD1 (11759106_at) / Fold change /veh NKD1 (11759106_at) / RFU SRD5A1 (11742802_a_at) / Fold change /veh SRD5A1 (11742802_a_at) / RFU TPSAB1 /// TPSB2 (11721975_s_at) / Fold change /veh TPSAB1 /// TPSB2 (11721975_s_at) / RFU GSTM3 (11746129_a_at) / Fold change /veh GSTM3 (11746129_a_at) / RFU IL23R (11737362_x_at) / Fold change /veh IL23R (11737362_x_at) / RFU TMEM51 (11727254_a_at) / Fold change /veh TMEM51 (11727254_a_at) / RFU PIWIL2 (11732686_x_at) / Fold change /veh PIWIL2 (11732686_x_at) / RFU ORM1 (11744905_x_at) / Fold change /veh ORM1 (11744905_x_at) / RFU CCDC152 (11743942_at) / Fold change /veh CCDC152 (11743942_at) / RFU ECM1 (11717891_a_at) / Fold change /veh ECM1 (11717891_a_at) / RFU IL23R (11748794_a_at) / Fold change /veh IL23R (11748794_a_at) / RFU TNFAIP8L3 (11732012_x_at) / Fold change /veh TNFAIP8L3 (11732012_x_at) / RFU MBOAT4 (11741988_at) / Fold change /veh MBOAT4 (11741988_at) / RFU 11764193_at / Fold change /veh 11764193_at / RFU TMEM53 (11763286_at) / Fold change /veh TMEM53 (11763286_at) / RFU MAGEB2 (11727129_at) / Fold change /veh MAGEB2 (11727129_at) / RFU TMEM200A (11744735_a_at) / Fold change /veh TMEM200A (11744735_a_at) / RFU CCDC152 (11751479_a_at) / Fold change /veh CCDC152 (11751479_a_at) / RFU FAM211A (11726209_a_at) / Fold change /veh FAM211A (11726209_a_at) / RFU RGS16 (11746705_a_at) / Fold change /veh RGS16 (11746705_a_at) / RFU VCAN (11755009_s_at) / Fold change /veh VCAN (11755009_s_at) / RFU RHOB (11743442_s_at) / Fold change /veh RHOB (11743442_s_at) / RFU RGS16 (11720943_a_at) / Fold change /veh RGS16 (11720943_a_at) / RFU RGS16 (11720944_at) / Fold change /veh RGS16 (11720944_at) / RFU, VPS4B / Fold change vs veh, VPS4B / RFU, CREB1 / Fold change vs veh, CREB1 / RFU, DNAJC13 / Fold change vs veh, DNAJC13 / RFU, GNAQ / Fold change vs veh, GNAQ / RFU, CDK5R1 / Fold change vs veh, CDK5R1 / RFU, ZRANB3 / Fold change vs veh, ZRANB3 / RFU, CUL4A / Fold change vs veh, CUL4A / RFU, CCNY / Fold change vs veh, CCNY / RFU, UFL1 / Fold change vs veh, UFL1 / RFU, COG3 / Fold change vs veh, COG3 / RFU, DIAPH2 / Fold change vs veh, DIAPH2 / RFU, SKA2 / Fold change vs veh, SKA2 / RFU, AFF3 / Fold change vs veh, AFF3 / RFU, LMF1 / Fold change vs veh, LMF1 / RFU, IPO11 / Fold change vs veh, IPO11 / RFU, DFFB / Fold change vs veh, DFFB / RFU, FOXP1 / Fold change vs veh, FOXP1 / RFU, CARD8 / Fold change vs veh, CARD8 / RFU, STRN3 / Fold change vs veh, STRN3 / RFU, ADK / Fold change vs veh, ADK / RFU, RASSF2 / Fold change vs veh, RASSF2 / RFU, WIPF1 / Fold change vs veh, WIPF1 / RFU, LARP1B / Fold change vs veh, LARP1B / RFU, RASA1 / Fold change vs veh, RASA1 / RFU, RB1 / Fold change vs veh, RB1 / RFU, PPFIA1 / Fold change vs veh, PPFIA1 / RFU, MAT2A / Fold change vs veh, MAT2A / RFU, CCT5 / Fold change vs veh, CCT5 / RFU, WDR92 / Fold change vs veh, WDR92 / RFU, CUX1 / Fold change vs veh, CUX1 / RFU, TTC7A / Fold change vs veh, TTC7A / RFU, TMEM135 / Fold change vs veh, TMEM135 / RFU, DEPTOR / Fold change vs veh, DEPTOR / RFU, CPM / Fold change vs veh, CPM / RFU, DNAJB6 / Fold change vs veh, DNAJB6 / RFU, CACNA2D3 / Fold change vs veh, CACNA2D3 / RFU, DTX4 / Fold change vs veh, DTX4 / RFU, TFCP2 / Fold change vs veh, TFCP2 / RFU, GMCL1 /// GMCL1P1 / Fold change vs veh, GMCL1 /// GMCL1P1 / RFU, AEBP2 / Fold change vs veh, AEBP2 / RFU, SNHG1 /// SNORD22 /// SNORD25 /// SNORD26 /// SNORD27 /// SNORD28 /// SNORD29 /// SNORD31 / Fold change vs veh, SNHG1 /// SNORD22 /// SNORD25 /// SNORD26 /// SNORD27 /// SNORD28 /// SNORD29 /// SNORD31 / Fold change (Aza/veh), C12orf56 (ProbeSet 11735607_a_at) / Fold change (ACY-1035/veh), C12orf56 (ProbeSet 11735607_a_at) / Fold change (Aza/veh), FGFR1OP (ProbeSet 11751329_s_at) / Fold change (ACY-1035/veh), FGFR1OP (ProbeSet 11751329_s_at) / Fold change (Aza/veh), VPS36 (ProbeSet 11739960_a_at) / Fold change (ACY-1035/veh), VPS36 (ProbeSet 11739960_a_at) / RFU SYPL1 (11715823_x_at) / Fold change /veh SYPL1 (11715823_x_at) / RFU IGFBP7 (11715501_s_at) / Fold change /veh IGFBP7 (11715501_s_at) / RFU REEP3 (11722064_at) / Fold change /veh REEP3 (11722064_at) / RFU IGLL1 (11728026_x_at) / Fold change /veh IGLL1 (11728026_x_at): dose or concentration left out as unconfirmed
Conditions: MV-4-11 cells, 48 hours

SMILES: Nc1ncn([C@@H]2O[C@H](CO)[C@@H](O)[C@H]2O)c(=O)n1 [azacitidine]
- Fold change /veh BIN1 (11741810_x_at): 1.02
